Laboratory results from patent US12291581B2, “Serpin peptides and methods of using the same” (SERPIN PHARMA, LLC, priority 2012, dated 2025).
Entries after “also recorded” stand apart in the source; their conditions may differ.

How the values were obtained:
[1] = Pharmacokinetic profile after intravenous injection, plasma by LC/MS/MS; assay type: in vivo, rats; details: IV 5 mg/kg
Description: In performing the assay, three normal rats were injected intravenously with 5 mg/kg SP16 and the plasma concentration of SP16 established at 8 time points following the injection. […] The assay was executed by Apredica, Boston, Mass.

[2] = target: hERG (Homo sapiens, UniProt Q12809); assay type: cell-based
From the text: The SP16 safety profile also included hERG data. […] The study was executed by Apredica, Boston, MA.

[3] = test system: 111 in vitro assay targets (human receptors); assay: Human receptor panning, GenSEP Explorer panel
From the text: In addition, we also performed a profile using human receptor panning. The GenSEP Explorer panel contains 111 in vitro assay targets carefully selected to assess drug/chemical biological activities. Assay categories include GPCRs, Voltage-Gated Ion Channels, Ligand-Gated Ion Channels, Neurotransmitter transporters, Nuclear Receptors and Steroids as well as a diverse set of biochemical targets including phosphodiesterases, kinases and other relevant enzymes.

[4] = test system: NOD mice; assay: NOD mouse spontaneous autoimmune (type I) diabetes model; assay type: in vivo; details: groups of 12 NOD mice, vs scrambled control peptide
Description: Groups of 12 animals were injected with SP16, hAAT or scrambled control peptide. Non-fasted blood glucose levels were measured twice a week and animals with two consecutive readings greater than 300 mg/dl were considered diabetic.
NOD (non-obese diabetic) mice spontaneously develop overt, insulin-dependent type I diabetes. The NOD model is recommended by the FDA for preclinical testing of therapeutic agents for type I diabetes. Disease onset typically occurs at 12-14 weeks of age, with peri-insulitis detectable from about 4 weeks of age and developing into severe insulitis at 10 weeks of age. The autoimmune destruction of β-cells is thought to arise from dysregulation of multiple tolerance pathways, leading to islet infiltration with monocytes, predominantly CD4^+ and CD8^+ T cells, and insulitis, with subsequent hypoinsulinemia and hyperglycemia.

[5] = test system: LPS challenged mice; assay: Mouse LPS challenge (sepsis/inflammation) model, serum TNF-alpha by ELISA; assay type: in vivo; details: for anti-inflammatory effect when administered to a mouse model of sepsis (FIG. 10): Table B peptides; for TNF-alpha levels in LPS challenged mice, alanine scanned SP16 peptides (FIG. 10B): compared with Dexamethasone positive control
Description: FIGS. 10A and B. FIG. 10A presents exemplary peptides that were used to reduce TNF-alpha levels in mice subjected to an LPS challenge. […] The mice were treated with alanine scanned SP16 peptide. […] Based on this alanine screen, and without wishing to be bound by a theory, it appears that the C- and N-terminal amino acids contribute to the anti-inflammatory effect of the SP16 peptide. […] Groups of 3 animals were injected with 0.2 mg/kg peptide and subjected to LPS challenge. Serum TNF-alpha levels were determined by ELISA. Several peptides provided the same level of protection as 1 mg/kg Dexamethasone.
The ability of peptide drugs was tested to for their potential for the reduction of inflammatory cytokines following treatment with purified bacterial lipopolysaccharide (LPS)—a major component of bacterial cell wall of Gram-negative bacteria. A model of inflammation was used wherein mice were injected with LPS, which induced a transient immune response and a surge of serum inflammatory cytokines. The immune response peaks after 90 minutes and subsides after 24 hours. The levels of key serum inflammatory markers were compared between mice treated and untreated with LPS 90 minutes after injection.
We designed 18 different peptides based on the hAAT sequence (Accession #AAB59371), and had these synthesized using conventional FMOC chemistry. To assess in vivo anti-inflammatory and therapeutic potential, the peptides were tested in a mouse lipopolysaccharide (LPS) challenge model with serum TNFα levels as readout. Using dexamethasone as reference, groups of 3 animals were IP injected with 0.2 mg/kg peptide 2 hours prior to an LPS challenge, and serum TNFα levels determined 30 min after the LPS challenge, by ELISA. The best performing peptide reduced serum TNFα levels equivalent to those achieved with 1 mg/kg dexamethasone. Next, shortened versions of this peptide were synthesized, tested in the mouse LPS challenge model, and a 17 amino acid peptide, SP16, emerged as a lead development candidate for further characterization. Next, SP16 was tested in a lethal endotoxemia model, which models endotoxemia following acute radiation exposure, where Gram negative bacteria leaking from the gastro-intestinal system can cause lethal endotoxemia.
Mice were injected with 0.5, 0.1, 0.02 and 0.004 mg of each peptide. Mice were also treated with dexamethasone as a positive control and vehicle as a negative control. Two hours later each mouse was injected with LPS. Samples were taken 90 minutes after LPS injection.
To evaluate the effect of different amino acids in the SP16 peptide for the immunomodulating effect, we created an alanine screen. […] The peptides wherein the substitution occurred within amino acids 4-14 of SP16, appeared to maintain and rather improve their capacity to reduce TNF-alpha levels compared to the control Dexamethasone. The LPS mouse model is an established model for sepsis in humans and thus we conclude that peptides wherein the amino acids 1-3 and 15-17 are present, can be effectively used in humans to treat or prevent sepsis in conditions, such as burns or acute radiation, which expose humans to a high risk of developing endotoxemia.

[6] = target: T1, TLR-2 (Mus musculus, UniProt Q9QUN7); assay: TLR-2 indicator cell line assay (HEK-Blue mTLR2), secreted alkaline phosphatase; assay type: cell-based; details: 20 μg/ml peptide, 24 hours
T1 construct: host or cells: HEK-Blue mTLR2 (HEK293-derived reporter line, SEAP read-out)
Description: Graph summarizing representative data from assays with an engineered TLR-2 indicator cell line (HEK-Blue™ mTLR2, Invivogen). Cells were incubated with the indicated concentrations of peptide for 24 hours. Upon TLR2 activation, the cells secrete alkaline phosphatase which can be assayed. The assay was done in triplicate and averages with standard deviations are plotted.
Graph summarizing data from an experiment where an engineered TLR-2 indicator cell line (HEK-Blue™ mTLR2, Invivogen) was used to test the impact of substituting amino acid residues of the SP16 peptide with alanine (“alanine scan”). Cells were incubated with 20 μg/ml of the indicated peptides for 24 hours. Upon TLR2 activation, the cells secrete alkaline phosphatase which can be assayed. The assay was done in triplicate and averages are plotted. Peptide sequences are shown in the following figure. *p<0.05, compared with scrambled control (SP34).
We also performed a peptide optimization assay using an alanine scan with the TLR-2 assay. Data was obtained using an experiment with an engineered TLR-2 indicator cell line (HEK-BLUE™ mTLR2, Invivogen). Cells were incubated with the 20 μg/ml of the indicated peptides for 24 hours. Upon TLR2 activation, the cells secrete alkaline phosphatase, which can be assayed. The assay was done in triplicate and averages are plotted. […]

hERG, sequence (Q12809 whole entry): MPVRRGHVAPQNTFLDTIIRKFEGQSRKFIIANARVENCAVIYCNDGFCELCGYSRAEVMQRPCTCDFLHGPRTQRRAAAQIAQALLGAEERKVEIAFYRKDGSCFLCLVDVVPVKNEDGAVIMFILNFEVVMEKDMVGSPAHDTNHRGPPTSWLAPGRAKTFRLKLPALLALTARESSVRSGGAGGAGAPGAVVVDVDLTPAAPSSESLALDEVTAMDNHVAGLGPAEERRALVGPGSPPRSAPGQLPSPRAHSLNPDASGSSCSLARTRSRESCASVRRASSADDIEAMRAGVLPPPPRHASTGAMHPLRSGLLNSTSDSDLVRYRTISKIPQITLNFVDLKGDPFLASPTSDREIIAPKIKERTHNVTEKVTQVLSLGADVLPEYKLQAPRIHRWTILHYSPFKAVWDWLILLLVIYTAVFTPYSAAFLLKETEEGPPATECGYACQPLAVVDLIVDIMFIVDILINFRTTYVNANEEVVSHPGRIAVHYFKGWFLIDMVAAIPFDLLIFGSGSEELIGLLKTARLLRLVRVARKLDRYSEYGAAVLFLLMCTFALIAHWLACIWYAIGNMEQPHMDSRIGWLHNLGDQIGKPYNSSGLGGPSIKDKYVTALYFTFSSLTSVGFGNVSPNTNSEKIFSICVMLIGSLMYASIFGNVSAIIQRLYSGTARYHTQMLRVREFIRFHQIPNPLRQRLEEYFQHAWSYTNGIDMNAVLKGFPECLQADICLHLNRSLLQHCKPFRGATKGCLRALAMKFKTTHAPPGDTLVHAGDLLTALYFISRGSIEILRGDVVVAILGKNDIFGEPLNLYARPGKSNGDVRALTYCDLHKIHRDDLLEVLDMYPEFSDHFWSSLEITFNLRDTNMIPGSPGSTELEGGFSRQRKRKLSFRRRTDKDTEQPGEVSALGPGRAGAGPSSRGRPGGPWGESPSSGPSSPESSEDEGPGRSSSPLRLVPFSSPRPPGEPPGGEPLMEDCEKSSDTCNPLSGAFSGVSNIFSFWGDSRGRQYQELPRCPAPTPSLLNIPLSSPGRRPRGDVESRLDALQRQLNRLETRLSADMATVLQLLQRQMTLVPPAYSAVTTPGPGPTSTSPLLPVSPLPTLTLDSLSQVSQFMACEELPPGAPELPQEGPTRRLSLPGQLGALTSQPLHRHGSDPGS
T1 sequence (Q9QUN7 25-784): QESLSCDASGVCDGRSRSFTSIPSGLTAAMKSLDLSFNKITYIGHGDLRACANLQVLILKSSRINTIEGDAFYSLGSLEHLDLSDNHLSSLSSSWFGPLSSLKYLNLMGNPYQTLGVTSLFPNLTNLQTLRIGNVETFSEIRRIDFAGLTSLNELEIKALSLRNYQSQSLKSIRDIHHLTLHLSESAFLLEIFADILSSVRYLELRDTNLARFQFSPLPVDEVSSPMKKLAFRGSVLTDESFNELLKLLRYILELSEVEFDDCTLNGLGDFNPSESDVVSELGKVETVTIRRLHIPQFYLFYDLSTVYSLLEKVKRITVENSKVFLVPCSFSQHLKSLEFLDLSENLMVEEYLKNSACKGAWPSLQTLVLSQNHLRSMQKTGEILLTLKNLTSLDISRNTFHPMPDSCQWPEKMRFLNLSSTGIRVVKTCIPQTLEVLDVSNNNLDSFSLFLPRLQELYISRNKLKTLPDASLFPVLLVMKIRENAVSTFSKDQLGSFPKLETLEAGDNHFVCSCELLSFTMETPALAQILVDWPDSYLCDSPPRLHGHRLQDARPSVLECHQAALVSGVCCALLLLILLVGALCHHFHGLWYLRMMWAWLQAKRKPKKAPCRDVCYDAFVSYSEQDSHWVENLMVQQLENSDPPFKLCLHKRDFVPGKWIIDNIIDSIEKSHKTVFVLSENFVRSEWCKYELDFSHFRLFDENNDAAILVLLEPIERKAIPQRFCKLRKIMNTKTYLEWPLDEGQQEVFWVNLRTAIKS

Molecule: CC[C@H](C)[C@H](NC(=O)[C@H](CCSC)NC(=O)[C@H](CC(C)C)NC(=O)[C@H](Cc1ccccc1)NC(=O)[C@@H](NC(=O)[C@H](Cc1ccccc1)NC(=O)[C@@H]1CCCN1C(=O)[C@H](CCCCN)NC(=O)[C@H](CC(N)=O)NC(=O)[C@H](Cc1ccccc1)NC(=O)[C@H](CCCCN)NC(=O)[C@@H](N)C(C)C)C(C)C)C(=O)N[C@@H](CCC(=O)O)C(=O)N[C@@H](CCC(N)=O)C(=O)N[C@@H](CC(N)=O)C(=O)N[C@H](C(=O)N[C@@H](CCCCN)C(=O)O)[C@@H](C)O [SP16]
- Last Time point ([1]; normal rats): 8.0
- t1/2 ([1]; normal rats): 1.9 h
- Cmax ([1]; three normal rats, plasma): 2500 ng/mL
- T1/2 (half-life) ([1]; three normal rats, plasma): 1.9 h
- comment on hERG inhibition ([2]; hERG FastPatch, 0.008-25 μM): No concentration-dependent
- IC50 ([2]; hERG FastPatch, test conc 0.008-25 μM (SP16), 0.01-10 μM (Quinidine)): > 25 µM
- hERG inhibition ([2]; up to 25 μM): does not impact hERG activity; also recorded: does not inhibit hERG
- effect on the whole GenSEP Explorer panel ([3]; 111 human receptors): not able to identify any hits; also recorded: no effect on 111 human receptors
- Percent inhibition ([3]; Brain/gut peptides, 15 receptors tested): Insignificant
- Percent inhibition ([3]; Cell-Based, Functional, 1 receptor tested): Insignificant
- Percent inhibition ([3]; Enzymes, 20 receptors tested): Insignificant
- Percent inhibition ([3]; Enzymes, Kinases, 11 receptors tested): Insignificant
- Percent inhibition ([3]; Growth factors & hormones, 2 receptors tested): Insignificant
- Percent inhibition ([3]; Ion Channels, 8 receptors tested): Insignificant
- Percent inhibition ([3]; Neurotransmitter Related, 47 receptors tested): Insignificant
- Percent inhibition ([3]; Second Messengers, 3 receptors tested): Insignificant
- Percent inhibition ([3]; Steroids, 4 receptors tested): Insignificant

Molecule: hAAT: human alpha-1-antitrypsin, parent protein of SP16
- incidence / development of diabetes (two consecutive non-fasted glucose readings greater than 300 mg/dl) [4]: delayed and reduced the incidence of diabetes

Molecule: V K F A A A F V F L M I E Q N T K (VKFAAAFVFLMIEQNTK; listed as Homo sapiens) [SP40, alanine scanned SP16 peptide]
- anti-inflammatory effect when administered to a mouse model of sepsis (FIG. 10) [5]: particularly good anti-inflammatory effect
- TNF-alpha levels in LPS challenged mice, alanine scanned SP16 peptides (FIG. 10B) [5]: reduce TNF-alpha levels more than Dexamethasone

Molecule: V K F N K P F V F A A A E Q N T K (VKFNKPFVFAAAEQNTK; listed as Homo sapiens) [SP46, alanine scanned SP16 peptide]
- anti-inflammatory effect when administered to a mouse model of sepsis (FIG. 10) [5]: particularly good anti-inflammatory effect
- TNF-alpha levels in LPS challenged mice, alanine scanned SP16 peptides (FIG. 10B) [5]: reduce TNF-alpha levels more than Dexamethasone

Molecule: V K F N K P A A A L M I E Q N T K (VKFNKPAAALMIEQNTK; listed as Homo sapiens) [SP43, alanine scanned SP16 peptide]
- anti-inflammatory effect when administered to a mouse model of sepsis (FIG. 10) [5]: particularly good anti-inflammatory effect
- TNF-alpha levels in LPS challenged mice, alanine scanned SP16 peptides (FIG. 10B) [5]: reduce TNF-alpha levels more than Dexamethasone

Molecule: V K F N K P F V F L M I A A A T K (VKFNKPFVFLMIAAATK; listed as Homo sapiens) [SP49, alanine scanned SP16 peptide]
- anti-inflammatory effect when administered to a mouse model of sepsis (FIG. 10) [5]: particularly good anti-inflammatory effect
- TNF-alpha levels in LPS challenged mice, alanine scanned SP16 peptides (FIG. 10B) [5]: reduce TNF-alpha levels more than Dexamethasone

Molecule: A A A N K P F V F L M I E Q N T K (AAANKPFVFLMIEQNTK; listed as Homo sapiens) [SP37, SP16 with residues 1-3 substituted with alanines]
- impact on TLR-2 signaling, alanine scan, FIG. 12/13 [6]: no impact on TLR2
